This note sets out measurements from the NIST ThermoML archive (doi:10.1021/acs.jced.7b00999).

For the data set the following is noted: Liquid, Ebulliometric method (Recirculating still).

± gives the expanded uncertainty stated by the source.

Turning to `CCC(C)OC(C)=O` (stereo not drawn) [1-methylpropyl ethanoate], the vapor or sublimation pressure (usually the equilibrium pressure above the liquid or solid) (385.15 K) amounted to 101.3 ± 1 kPa.

With `CCCCCCC` [heptane], the “vapor or sublimation pressure” value (371.58 K) is given as 100 ± 1 kPa.

Regarding `CC1CCCCC1` [methylcyclohexane], for the setting “374.08 K”, the “vapor or sublimation pressure” value is 101.3 ± 1 kPa.
